In PMC11022698, “Precisely Activating cGAS‐STING Pathway with a Novel Peptide‐Based Nanoagonist to Potentiate Immune Checkpoint Blockade Cancer Immunotherapy” (Advanced Science, 2024):

Experiments:
cGAS-STING pathway [1] = test: Western blot of p-STING, p-TBK1 and p-IRF3 in B16F10 cells; type: cell-based; conditions: 40 µM, n = 3
Protocol: (§1) B16F10 cells were seeded in a 12-well plate at a density of 5×10^4 cells per well and […]
(§2) with PBS, the cells were collected by centrifugation. Cytosolic mtDNA was […] using a Cell Mitochondria Isolation Kit (C3601, Beyotime, China), and the DNA was then extracted with a TIANamp Genomic DNA kit (DP304, Tiangen Biotech, China) following the manufacturer’s protocol. The mtDNA D-Loop primers were synthesized by GenePharma Biotech (detailed sequences in Table S3, Supporting Information), and then quantified with Multiplex PCR Kit (PM101, Novoprotein , Shanghai, China) using Quantitative Real-Time PCR Detection System (Bio-Rad, CFX96, USA).
(§3) Caspase-9 and Caspase-3 Activity Assay
(§4) The B16F10 cells were seeded into a 6-well plate at the density of 2×10^5 cells per […]
(§5) cells were rinsed with PBS for three times and then treated with lysis buffer solution in ice bath for 1 h. Cell lysates were centrifuged at 12000 rpm for 5 min at 4 °C, and the supernatant was collected. The supernatant was incubated with caspase-9 or caspase-3 substrate at 37 °C in dark for 12 h. The activities of caspase-9 and caspase-3 were […]
(§6) Evaluation of cGAS-STING Pathway Activation
(§7) Western bolt was employed to evaluate the MAPN-mediated activation of cGAS-STING pathway. Briefly, B16F10 cells were first seeded into 24-well plates at 2×104 […]
(§8) culture medium with or without H2O2 (100 μM). […]

B16F10 cells [2] = test: mtDNA leakage assay, immunofluorescence of dsDNA Marker and anti-TOMM20 (CLSM); type: cell-based; conditions: KLA-treated B16F10 cells, n = 3
Protocol: The endosomal escape ability of MAPN was study by analyzing the colocolization of endosomes and KLA after internalizing into cells. Briefly, B16F10 cells were seeded […]
overnight for cell attachment. KLA was labeled with FITC. The cells were incubated […]
H2O2 (100 μM) for 4 h. After 1 h, 3 h, and 6 h incubation, endosomes were stained with LysoTracker probe (red) according to manufacture’s instruction. The cells were then […]
at room temperature, and counterstained with DAPI for the easy observation of cell […]
In Vitro PD-1/PD-L1 Pathway Blockade
MAPN-mediated PD-1/PD-L1 pathway blockade was evaluated with anti-PD-L1 (sc-518027, Santa Cruz, USA) staining. Briefly, B16F10 cells were seeded at a density […]
at room temperature, and then stained with Alexa Fluor 594 (red) labeled anti -PD-L1 […]
B16F10 cells were seeded at a density of 1×10^4 cells per well in 35 mm confocal dish (Ф =15 mm) and incubated overnight for cell attachment. The cells were incubated […]
without H2O2 (100 μM) for 24 h. After washing with PBS, the cells were permeabilized, and incubated with Anti-TOMM20 antibodies (GB111481, Servicebio, China) and dsDNA Marker (sc-58749, Santa Cruz, USA) at 4 °C overnight, and then incubated with secondary antibodies for 2 h and counterstained with DAPI. All the cells were observed using a CLSM (Zeiss, Germany).
The qPCR Quantification of Cytosolic mtDNA

[3] = system: B16F10 tumor-bearing C57BL/6 mouse model; test: Anti-tumor immune responses after i.t. or i.v. injection of AMPs; type: in vivo, C57BL/6 mice; conditions: 7.5 mg kg^-1; for DCs maturation (CD80+ CD86+ CD11c+ cells) in lymph nodes: representative flow cytometric plot
Protocol: Next, the B16F10 tumor‐bearing C57BL/6 mouse model was established to investigate whether KLA can initiate efficient anti‐tumor immune responses by activating the cGAS‐STING pathway. The KLA was administrated either through intratumoral (i.t.) or intravenous (i.v.) injection at the dose of 7.5 mg kg^−1, 17BIPHE2 and CGA‐N12 were employed as comparative groups.

cGAS-STING pathway [4] = test: Secretion levels of cGAMP and IFN-β in B16F10 cells; type: cell-based; conditions: KLA-treated B16F10 cells; n = 3
B16F10 cells [5] = test: qRT-PCR quantification of cytosolic mtDNA; type: cell-based; conditions: n = 3
Protocol: as §1, §2, §3, §4, §5, §6, §7, §8

“KLAKLAK2 [model antimicrobial peptide that promotes mtDNA leakage by changing mitochondrial inner membrane permeability]” was tested, and the “phosphorylation levels of STING, TBK1, and IRF3 proteins” value (cGAS-STING pathway [1]) was “remarkably increased”, the “Pearson correlation coefficient of dsDNA and mitochondria (TOMM20)” value (B16F10 cells [2]) was 0.464 and the “DCs maturation, fold over PBS treatment” value ([3]; i.t. injection, n = 6) was 2.53 fold. The “pro-inflammatory cytokines (IFN-β, IFN-γ, TNF-α, IL-6, IL-12) in tumor tissues compared with other groups” value ([3]; i.t. injection, n = 6) was “significantly higher levels”, the “tumor-infiltrating CD8+ T cells, fold over PBS treatment” value ([3]; i.t. injection, n = 6) was 2.36 fold and the “DCs maturation (CD80+ CD86+ CD11c+ cells) in lymph nodes” value ([3]; i.t. injection) was 31.4%. The “initiation of systemic anti-tumor immune responses” value ([3]; i.v. injection) was “weak effect”, the “DCs maturation (CD80+ CD86+ CD11c+ cells) in lymph nodes” value ([3]; i.v. injection) was 17.9% and the “IFN-β level, fold over PBS-treated cells” value (cGAS-STING pathway [4]) was 2.03 fold. The “cGAMP level, fold over PBS-treated cells” value (cGAS-STING pathway [4]) was 1.85 fold, the “cytosolic mtDNA level, fold over 17BIPHE2-treated cells” value (B16F10 cells [5]) was 2.41 fold and the “cytosolic mtDNA level, fold over CGA-N12-treated cells” value (B16F10 cells [5]) was 1.87 fold.
